Assays:
[1] = calcium carbonate 0-10%, various time periods of incubation
Protocol: Precipitation of iron by calcium carbonate: Iron was added to extracellular matrix, followed by the addition of different concentrations of calcium carbonate (0-10%) (FIG. 5). After various time periods of incubation, a small part of the mixture was filtered using a membrane with a molecular weight cutoff of 5,000 Dalton as previously described in FIG. 4. Levels of iron in the filtrates were determined by Ferrozine.

Ferritin = Ferritin (Homo sapiens, UniProt P02792+P02794); experiment: Reduction of iron from ferritin by vitamin C; format: biochemical
Chain of Ferritin (P02794 whole entry, species assumed): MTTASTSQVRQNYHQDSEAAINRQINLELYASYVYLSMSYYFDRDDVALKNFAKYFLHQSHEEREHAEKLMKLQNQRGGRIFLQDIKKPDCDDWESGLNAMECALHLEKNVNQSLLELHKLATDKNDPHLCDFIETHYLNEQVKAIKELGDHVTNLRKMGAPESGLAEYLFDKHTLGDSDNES
Chain of Ferritin (P02792 whole entry, species assumed): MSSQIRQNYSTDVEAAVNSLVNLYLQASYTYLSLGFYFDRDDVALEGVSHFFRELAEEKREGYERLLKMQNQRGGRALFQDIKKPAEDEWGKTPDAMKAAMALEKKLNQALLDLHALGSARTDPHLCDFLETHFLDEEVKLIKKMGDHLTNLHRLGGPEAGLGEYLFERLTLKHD
Protocol: Reduction of iron from ferritin by vitamin C: Ferritin at a concentration of 1 mg/ml was incubated with various concentrations of vitamin C (0-500 μM). […] Levels of iron in the filtrates were measured by Ferrozine (Sigma, St. Louis, Mo.), which forms a stable magenta-colored complex (Fe^2+-ferrozine) with a maximum absorption at 560 nm. In brief, 30 μl sample was added to 135 μl buffer. After 10 min incubation at 37° C., the absorbance was measured at 560 nm using a UV—visible microplate reader (SpectraMax Plus, Molecular Devices, Sunnyvale, Calif.). Then, 5 μl iron chromogenic agent (ferrozine) was added and after 15 min incubation, the absorbance was measured again at 560 nm. The difference in absorbance was used to calculate iron concentration after comparing to the iron standard curve. To determine whether iron is completely released from ferritin, atomic absorption (AA) was used to measure total iron in ferritin.

| Compound | precipitation of iron (iron in filtrates by Ferrozine) [1] | completeness of iron release from ferritin (atomic absorption, total iron) (Ferritin; after vitamin C reduction) | release of iron from ferritin (iron in filtrates measured by Ferrozine) (Ferritin; ferritin 1 mg/ml, vitamin C 0-500 μM, one hour incubation) |
| --- | --- | --- | --- |
| O=C([O-])[O-].[Ca+2] [calcium carbonate] | can effectively precipitate iron |  |  |
| O=C1O[C@H]([C@@H](O)CO)C(O)=C1O [vitamin C] |  | all iron in ferritin is released | effective in releasing iron from ferritin |
